Results as given in US4262128A, “Nitrogen heterocycles” (Burroughs Wellcome Co., priority 1976, dated 1981).

Columns and labels:
[1] = tested on: human platelet rich plasma (PRP); assay: Inhibition of ADP-stimulated platelet aggregation (Born aggregometer); format: cell-based
Method: Aggregation of platelets in 1 ml. of fresh humam platelet rich plasma (PRP) was monitored in a Born aggregometer.
The compound to be tested was added to the PRP at the desired concentration, and the resulting mixture incubated at 37° C. for 1 minute after which platelet aggregation was stimulated by the addition of adenosine diphosphate (ADP) to a concentration of 5 μM.
The anti-aggregatory effect of the compound was assessed by measuring the percentage inhibition of platelet aggregation in the presence of the compound as compared when it was completely absent.

[2] = tested on: electrically-induced arterial thrombosis; assay: Electrically-induced arterial thrombosis in anaesthetised rabbits; format: in vivo, rabbit; conditions: intravenous infusion 250 μg/min
[3] = tested on: pentagastrin-induced gastric acid secretion; assay: Pentagastrin-induced gastric acid secretion in rats; format: in vivo, rat
[4] = tested on: male normotensive rats Wistar (Charles River) strain; assay: Cardiovascular effects in rats (fall in blood pressure, anaesthetised normotensive rats); format: in vivo, rat; conditions: i.v.
Method: Male normotensive rats Wistar (Charles River) strain, (250-350 g) were anesthetised (chloroform) prior to cannulation of the left femoral vein and anaesthesia maintained by intravenous chloralose (60 mg/kg). Pulsatile blood pressure was recorded from the left femoral artery with an electronic transducer (Bell and Howell Type 4-327 L221) and integrated heart rate was measured with a cardiotachometer triggered from the arterial pressure waves.
The test compound was administered as a solution in physiological saline by intravenous injection via the femoral cannula. The responses recorded were allowed to return to the preinjection levels between successive administrations.

[5] = tested on: aspirin-induced gastric ulceration; assay: Aspirin-induced gastric ulceration / lesions in rats; format: in vivo, rat; conditions: for reduction of aspirin-induced gastric lesions: general statement, no dose
dogs = assay: Urine volume in dogs, intravenous infusion; format: in vivo, dog
[6] = tested on: histamine-induced broncho-constriction; assay: Histamine-induced broncho-constriction; format: in vivo, guinea-pig
vascular smooth muscle = assay: Relaxation of vascular smooth muscle; conditions: similar to prostaglandin A and E series; general statement
rat = assay: Cardiovascular effects in the rat (blood pressure and heart rate, with and without propranolol or atropine); format: in vivo
[7] = Compound 14 (m.p. 96°-98°) 2 mg/kg i.v. with propranolol 3 mg/kg
[8] = Compound 14 (m.p. 96°-98°) 2 mg/kg i.v., no propranolol
[9] = Compound 14 (m.p. 96°-98°) 5 mg/kg i.v. with propranolol 3 mg/kg
[10] = Compound 14 (m.p. 96°-98°) 5 mg/kg i.v., no propranolol

CCCCCC(O)CCN1C(=O)NC(=O)C1CCCCCCC(=O)O (stereo not shown) [Compound 2 (m.p. 76°-78°), 5-(6-Carboxyhexyl)-1-(3-hydroxyoctyl)hydantoin]
relative potency with respect to PGE1 (inhibition of platelet aggregation) [1]: 12.5 ×
reduction of electrically-induced arterial thrombosis [2]: reduce electrically-induced arterial thrombosis

CCCCCC(O)CCN1C(=O)NC(=O)C1CCCCCCC(=O)O (stereo not shown) [Compound 2, 5-(6-Carboxyhexyl)-1-(3-hydroxyoctyl)hydantoin]
inhibition of pentagastrin-induced gastric acid secretion ([3]; general statement, no dose): inhibit pentagastrin-induced gastric acid secretion
inhibition of pentagastrin-induced gastric acid secretion ([3]; intravenous dose of 30 μg/kg, rats): completely inhibited
Mean fall in blood pressure ([4]; 10 μg/kg): 14 mmHg
Mean fall in blood pressure ([4]; 1 mg/kg): 42 mmHg
reduction of aspirin-induced gastric lesions [5]: reduce the formation of aspirin-induced gastric lesions
increase of urine volume (dogs): increase urine volume

CC(C)(C)C(O)CCN1C(=O)NC(=O)C1CCCCCCC(=O)O (stereo not shown) [Compound 4 (m.p. 144°-146°), 5-(6-Carboxyhexyl)-1-(3-hydroxy-4,4-dimethylpentyl)hydantoin]
relative potency with respect to PGE1 (inhibition of platelet aggregation) [1]: 0.05 ×

CCCCCCC(O)CCN1C(=O)NC(=O)C1CCCCCCC(=O)O (stereo not shown) [Compound 6, 5-(6-Carboxyhexyl)-1-(3-hydroxynonyl)hydantoin]
Mean fall in blood pressure ([4]; 3 mg/kg): 40 mmHg

CCCCC(C)(C)C(O)CCN1C(=O)NC(=O)C1CCCCCCC(=O)O (stereo not shown) [Compound 9, 5-(6-Carboxyhexyl)-1-(3-hydroxy-4,4-dimethyloctyl)hydantoin]
Mean fall in blood pressure ([4]; 3 mg/kg): 22 mmHg
antagonism of histamine induced broncho-constriction (PGE1-like) ([6]; general statement, no dose): mimics the effect of PGE1 of antagonising histamine induced broncho-constriction
antagonism of histamine-induced broncho-constriction ([6]; intravenous injection 50 μg/kg, anaesthetised guinea-pigs): completely anatagonise
relaxation of vascular smooth muscle (vascular smooth muscle): relaxation of vascular smooth muscle

O=C(O)CCCCCCC1C(=O)NC(=O)N1CCC(O)C1CCC1 (stereo not shown) [Compound 11 (114°-116°), 5-(6-Carboxyhexyl)-1-(3-hydroxy-3-cyclobutylpropyl)hydantoin]
relative potency with respect to PGE1 (inhibition of platelet aggregation) [1]: 5.2 ×

O=C(O)CCCCCCC1C(=O)NC(=O)N1CCC(O)C1CCCC1 (stereo not shown) [Compound 12 (m.p. 116-117°), 5-(6-Carboxyhexyl)-1-(3-hydroxy-3-cyclopentylpropyl)hydantoin]
inhibition at 0.0005 µg/mL ([1]; Homo sapiens, Platelet, 0.5 ng/ml, ADP 5 μM): 25%
inhibition at 0.001 µg/mL ([1]; Homo sapiens, Platelet, 1.0 ng/ml, ADP 5 μM): 51%
inhibition at 0.002 µg/mL ([1]; Homo sapiens, Platelet, 2.0 ng/ml, ADP 5 μM): 79%
inhibition at 0.004 µg/mL ([1]; Homo sapiens, Platelet, 4.0 ng/ml, ADP 5 μM): 94%
relative potency with respect to PGE1 (inhibition of platelet aggregation) [1]: 12.5 ×

O=C(O)CCCCCCC1C(=O)NC(=O)N1CCC(O)C1CCCCC1 (stereo not shown) [Compound 14 (m.p. 96°-98°), 5-(6-Carboxyhexyl)-1-(3-hydroxy-3-cyclohexylpropyl)hydantoin]
relative potency with respect to PGE1 (inhibition of platelet aggregation) [1]: 16 ×
hypotensive effect in the rat (rat; i.v., in words): substantial hypotensive effect
tachycardia accompanying the hypotension (rat; i.v., in words): accompanied by tachycardia

O=C(O)CCCCCCC1C(=O)NC(=O)N1CCC(O)C1CCCCC1 (stereo not shown) [Compound 14, 5-(6-Carboxyhexyl)-1-(3-hydroxy-3-cyclohexylpropyl)hydantoin]
Mean fall b.p. (±SD) (rat; [7]): 28 ± 5
Mean rise hrt.rate (±S.D) (rat; [7]): 6.5 ± 3
Mean fall b.p. (±SD) (rat; [8]): 28 ± 6.5
Mean rise hrt.rate (±S.D) (rat; [8]): 44 ± 7
Mean fall b.p. (±SD) (rat; [9]): 27 ± 7.5
Mean rise hrt.rate (±S.D) (rat; [9]): 11.5 ± 2.5
Mean fall b.p. (±SD) (rat; [10]): 34 ± 3
Mean rise hrt.rate (±S.D) (rat; [10]): 47.5 ± 2.5

CCCCCC(=O)CCN1C(=O)N(C)C(=O)C1CCCCCCC(=O)O (stereo not shown) [Compound 90, 5-(6-Carboxyhexyl)-3-methyl-1-(3-oxooctyl)hydantoin]
inhibition of pentagastrin-induced gastric acid secretion ([3]; general statement, no dose): inhibit pentagastrin-induced gastric acid secretion
reduction of aspirin-induced gastric lesions [5]: reduce the formation of aspirin-induced gastric lesions
protection against aspirin-induced gastric ulceration ([5]; oral dose of 1 mg/kg): 80%

CC(C)(Cc1ccccc1)C(O)CCN1C(=O)NC(=O)C1CCCCCCC(=O)O (stereo not shown) [Example 1, 5-(6-carboxyhexyl)-1-(3-hydroxy-4,4-dimethyl-5-phenylpentyl)-hydantoin]
relaxation of vascular smooth muscle (vascular smooth muscle): relaxation of vascular smooth muscle

O=C(O)CCCCCCC1C(=O)NC(=O)N1CCCCOc1ccccc1 (stereo not shown) [Example 79b, 5-(6-carboxyhexyl)-1-(4-phenoxybutyl)hydantoin]
inhibition of pentagastrin-induced gastric acid secretion ([3]; general statement, no dose): inhibit pentagastrin-induced gastric acid secretion
reduction of aspirin-induced gastric lesions [5]: reduce the formation of aspirin-induced gastric lesions

CCCCCC(=O)CCN1C(=O)NC(=O)C1CCCCCCC(=O)O (stereo not shown) [Example 88, 5-(6-carboxyhexyl)-1-(3-oxooctyl)hydantoin]
inhibition of pentagastrin-induced gastric acid secretion ([3]; general statement, no dose): inhibit pentagastrin-induced gastric acid secretion
reduction of aspirin-induced gastric lesions [5]: reduce the formation of aspirin-induced gastric lesions

CCCCC[C@H](O)/C=C/[C@H]1[C@H](O)CC(=O)[C@@H]1CCCCCCC(=O)O [PGE1, reference compound]
inhibition at 0.015 µg/mL ([1]; Homo sapiens, Platelet, 15 ng/ml, ADP 5 μM): 33%
inhibition at 0.02 µg/mL ([1]; Homo sapiens, Platelet, 20 ng/ml, ADP 5 μM): 47%
inhibition at 0.03 µg/mL ([1]; Homo sapiens, Platelet, 30 ng/ml, ADP 5 μM): 63%
inhibition at 0.04 µg/mL ([1]; Homo sapiens, Platelet, 40 ng/ml, ADP 5 μM): 69%

CCCCC[C@H](O)/C=C/[C@H]1[C@H](O)CC(=O)[C@@H]1C/C=C\CCCC(=O)O [PGE2, reference compound]
Mean fall in blood pressure ([4]; 4 μg/kg): 28 mmHg
Mean fall in blood pressure ([4]; 16 μ/kg): 44 mmHg

CN1[C@@H]2CC[C@H]1C[C@@H](OC(=O)C(CO)c1ccccc1)C2 (stereo partly shown) [atropine, reference compound]
effect of concurrent atropine on hypotensive effect of Compound 14 (rat; atropine 2 mg/kg i.v.): did not significantly affect
effect of concurrent atropine on tachycardiac effect of Compound 14 (rat; atropine 2 mg/kg i.v.): did not significantly affect

CC(C)NCC(O)COc1cccc2ccccc12 (stereo not shown) [propranolol, reference compound]
effect of concurrent propranolol on hypotensive action of Compound 14 (rat; concurrent dose of propranolol): without significantly effecting the hypotensive action
effect of concurrent propranolol on tachycardia caused by Compound 14 (rat; concurrent dose of propranolol): considerably reduced the tachycardia
